Results on six molecules are retold here after patent US20090036426A1 (AMPLA Pharmaceuticals Inc., priority 2007, published 2009).

The target in test [1] is T1, CB1 receptor (Homo sapiens, UniProt P21554). The test can be described thus: Functional activity versus the CB1 receptor (statement, no method).
Test [2] is described as follows: Body weight of diet-induced obese mice, repeated oral administration (Example 2). In kind it is in vivo, male C57BL/6J mice. The following applies: for reduction of body weight: dosed for 28 days, DIO mice, FIG. 8. As for the experimental part: Sixty-five C57BL/6J mice (7-8 weeks of age) were ordered from Charles River, Margate, Kent. Mice were group housed in polypropylene cages with free access to a high fat diet (D12451 45% of Kcal derived from fat; Research Diets, New Jersey, USA) and tap water at all times. Animals were maintained at 21±4° C. and 55±20% humidity on a normal phase 12 h light-dark cycle (lights on 04:30 h)
Body weight and food and water intake were recorded daily. Following drug administration the animals were examined and any overt behaviour was recorded. For all dosing, the morning session was timed such that approximately half the mice were dosed at the time of lights out (09:30).
The test compounds were dissolved in 1% methylcellulose. Drugs were made up fresh each day 1-2 h before dosing and were administered using a dose volume in the range of 1-3 ml/kg. Drug doses were expressed as free base.
P<0.05 was considered to be statistically significant. Daily food and water intake data was analysed by ANOVA.

Test [3] can be described thus: Acute administration: wet mash and food intake and 24 h body weight in lean mice (Example 3). Format: in vivo, male C57BL/6J mice. The settings on record: dosed orally at 10 mg/kg, one-way ANOVA.
The nature of test [4]: Body weight of diet-induced obese mice, chronic administration of Treatment E (Example 4).
Test [5] addresses T2, Human Cannabinoid 1 (CB1) receptor (Homo sapiens, UniProt P21554).
T2 construct: expressed in transfected cells; host or cells: CHO cells stably expressing the GqΔGi chimera; clonal CB1 line
Kind of test: Ca2+i response to 2-AG dose-response in CB1 cells with or without compound (DSIS flow cytometry). In kind it is cell-based. The settings on record: 2-AG with or without compound, FIG. 2. An excerpt:
cDNA for the G protein GqΔGi chimera was generated by PCR and inserted into the polylinker region of the pcDNA3/hygro+ vector (Invitrogen). Stable expression of GqΔGi chimera protein in CHO cell line was generated under hygromycin selection. Human Cannabinoid 1 (CB1) cDNA was inserted into the polylinker region of the pcDNA3.1/(+) vector (Invitrogen) and DNA was introduced into the GqΔGi/CHO cell line by Lipofectamine reagent (Invitrogen). Cell lines stably expressing the CB receptor with GqΔGi chimera protein were generated by double selection with hygromycin and G418 (Coward, P., et al. 1999. Chimeric G proteins allow a high-throughput signaling assay of Gi-coupled receptors. Anal Biochem. 270:242-8).
CB1 Cells were plated 24-48 hours in advance, and were harvested with trypsin at ˜80% confluency. Cells were then centrifuged and resuspended two times in Hybridoma Media, the final time at a concentration of 1×10^6 cells/mL. Two μM of Indo-1 were added and cells were incubated for 1 hour on a rotator at room temperature. […]
The probe-loaded CB1 and Control cell mixture was placed in the Cell Suspension System on the DSIS where they were continuously rocked to keep them in a suspended state. […] The DSIS software, NVS Sampler, recorded a timing file and the CyAn software, Summit, recorded a data file. […]
(In general: Flow cytometry measures light scatter and fluorescence of single cells or particles in a stream.)

Test [6] deals with T3, CB2 receptor (Homo sapiens, UniProt P34972).
T3 construct: host or cells: CB2 receptor bearing cells (host line not described)
T3 sequence (P34972 whole entry): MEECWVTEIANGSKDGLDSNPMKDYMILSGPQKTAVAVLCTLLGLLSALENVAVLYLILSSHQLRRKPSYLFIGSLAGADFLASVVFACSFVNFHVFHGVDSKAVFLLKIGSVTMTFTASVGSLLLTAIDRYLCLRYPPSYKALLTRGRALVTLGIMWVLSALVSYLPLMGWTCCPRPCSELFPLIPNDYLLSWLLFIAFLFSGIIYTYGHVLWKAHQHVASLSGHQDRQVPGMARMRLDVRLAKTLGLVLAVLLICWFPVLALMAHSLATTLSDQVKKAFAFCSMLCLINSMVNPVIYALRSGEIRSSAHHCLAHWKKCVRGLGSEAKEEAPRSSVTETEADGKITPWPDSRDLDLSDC
The test can be described thus: Ca2+i response to 2-AG dose-response in CB2 receptor bearing cells with or without compound. Format: cell-based. The following applies: 2-AG with or without compound, FIG. 2.

The target of test [7] is T4, mouse CB1 (mouse brain membrane) (Mus musculus, UniProt P47746).
T4 construct: or mouse brain membrane preparations in 96-well plate format; from tissue; host or cells: mouse brain membranes
T4 sequence (P47746 whole entry): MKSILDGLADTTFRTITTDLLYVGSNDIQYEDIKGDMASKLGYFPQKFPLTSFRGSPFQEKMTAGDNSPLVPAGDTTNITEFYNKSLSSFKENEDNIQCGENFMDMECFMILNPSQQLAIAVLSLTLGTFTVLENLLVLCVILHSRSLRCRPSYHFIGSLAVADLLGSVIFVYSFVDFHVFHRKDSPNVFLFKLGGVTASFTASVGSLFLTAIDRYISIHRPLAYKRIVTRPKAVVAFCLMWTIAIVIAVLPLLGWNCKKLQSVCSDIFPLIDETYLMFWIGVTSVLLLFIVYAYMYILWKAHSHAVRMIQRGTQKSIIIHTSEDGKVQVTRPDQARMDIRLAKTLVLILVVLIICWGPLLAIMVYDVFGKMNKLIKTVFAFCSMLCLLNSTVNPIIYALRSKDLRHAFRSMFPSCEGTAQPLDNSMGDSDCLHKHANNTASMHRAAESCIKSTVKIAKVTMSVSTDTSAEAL
Kind of test: Competition ligand binding assay, mouse brain membrane preparations. As for the experimental part: (§1) Competition ligand binding assays were performed with the non-selective cannabinoid receptor agonist ([^3H]CP 55,940) (0.75 nM) in the binding buffer containing 50 mM Tris-HCl, pH 7.4, 3 mM MgCl2, 1 mM EDTA, 0.2% BSA using CHO-k1 cell membranes stably expressing human CB1 receptors or mouse brain membrane preparations in 96-well plate format. The receptor membranes (10 μg/well) were pre-incubated with different concentrations of tested compounds in the binding buffer at room temperature for 30 min prior to addition of 0.75 nM [^3H]CP 55,940 in a final volume of 100 μl. The binding was carried out at room temperature for another 2 h. To determine the non-specific binding, experiments were also performed in the presence of 10 μM unlabeled CP 55,940. Binding was terminated by addition of cold binding buffer and filtrated on Whatman GF/B glass-fiber filters using a sampling manifold. The filters were washed 6 times with cold binding buffer and air-dried overnight. The radioactivity was quantitated on a TopCounter (PerkinElmer) after adding scintillation fluid. Specific binding was defined as the difference between the binding in the presence and absence of 10 μM unlabeled CP 55, 940.

Test [8] has as its target T1, CB1 receptor. The test can be described thus: Dissociation kinetics assay with [3H]CP 55,940 on CHO-k1 cell membranes. The settings on record: 0.75 nM [3H]CP 55,940, room temperature, FIG. 3. Format: binding. Also noted: expressed in transfected cells; host or cells: CHO-k1 cell membranes. The procedure:
Dissociation kinetics assays were performed with the non-selective cannabinoid receptor agonist ([^3H]CP 55,940) (0.75 nM) in the binding buffer containing 50 mM Tris-HCl, pH 7.4, 3 mM MgCl2, 1 mM EDTA, 0.2% BSA using CHO-k1 cell membranes stably expressing human CB1 receptors in 96-well plate format. The CB1 receptor membranes (10 μg/well) were incubated with 0.75 nM [^3H]CP 55,940 in 100 μl binding buffer at room temperature for 2 h. Dissociation was initiated with addition of 100 μl unlabeled CP 55,940 (10 μM) in binding buffer in the absence or presence of different concentrations of compounds (compound 7). Dissociation was carried out at room temperature for indicated time. To determine the non-specific binding, experiments were also performed in the presence of 10 μM unlabeled CP 55,940. Binding was terminated by addition of cold binding buffer and filtrated on Whatman GF/B glass-fiber filters using a sampling manifold. The filters were washed 6 times with cold binding buffer and air-dried overnight. The radioactivity was quantitated on a TopCounter (PerkinElmer) after adding scintillation fluid. Specific binding was defined as the difference between the binding in the presence and absence of 10 μM unlabeled CP 55,940.

In test [9] the target is T1, CB1 receptor. The test can be described thus: [35S]GTPγS binding assay on CHO-k1 cell membranes. In kind it is biochemical. Details: expressed in transfected cells; host or cells: CHO-k1 cell membranes. The procedure:
[^35S]GTPγS binding assays were performed with CHO-k1 cell membranes stably expressing human CB1 receptors in 96-well ScintiPlate (PerkinElmer). The membranes (12.5 μg/well) were preincubated with compound 7 in the binding buffer (50 mM Tris-HCl, pH 7.4, 100 mM NaCl, 3 mM MgCl2, 0.2 mM EDTA, 0.2% BSA and 10 μM GDP) at 30° C. for 30 min, then added various concentrations of agonists (WIN 55212-2 or CP 55,940) and [^35S]GTPγS (0.2 nM) in a final volume of 200 μl. Reactions were carried out at 30° C. for 60 min, followed by centrifugation of plate at […] for 15 min. After removing supernatant, the radioactivity was quantitated on a TopCounter.
A general note: GTPγS is a poorly hydrolysed GTP analogue; its binding reports G protein activation.

In test [10] the target is T1, CB1 receptor. Kind of test: Competition ligand binding assay, CHO-k1 cell membranes. Details: expressed in transfected cells; host or cells: CHO-k1 cell membranes. The settings on record: 0.75 nM radioligand, FIG. 6. The procedure:
as §1

T1 sequence (P21554 whole entry): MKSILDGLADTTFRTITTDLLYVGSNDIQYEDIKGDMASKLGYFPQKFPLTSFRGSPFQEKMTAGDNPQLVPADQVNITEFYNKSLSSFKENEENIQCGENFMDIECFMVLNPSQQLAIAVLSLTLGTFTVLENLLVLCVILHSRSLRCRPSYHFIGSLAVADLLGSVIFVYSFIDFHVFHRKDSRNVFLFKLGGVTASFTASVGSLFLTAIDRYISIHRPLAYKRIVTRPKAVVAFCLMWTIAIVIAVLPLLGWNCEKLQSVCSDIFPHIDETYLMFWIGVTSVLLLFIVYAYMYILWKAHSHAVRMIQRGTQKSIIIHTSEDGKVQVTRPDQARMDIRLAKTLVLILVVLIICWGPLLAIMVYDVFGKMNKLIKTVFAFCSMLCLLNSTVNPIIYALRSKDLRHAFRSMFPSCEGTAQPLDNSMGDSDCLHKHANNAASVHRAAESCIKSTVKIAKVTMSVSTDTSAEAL
T2 sequence (P21554 whole entry): as above

For the molecule `NCCC(Oc1ccc(C(F)(F)F)cc1)c1ccccc1` (racemic) [racemate of norfluoxetine, 3-(4-trifluoromethylphenoxy)-3-phenylpropylamine], in [1], the “functional activity versus the CB1 receptor” value is “antagonist”.
Take `Cc1c(C(=O)NN2CCCCC2)nn(-c2ccc(Cl)cc2Cl)c1-c1ccc(Cl)cc1` [rimonabant]: in [2] (10 mg/kg po), the “reduction of body weight” value came to 15%. Also, the “weight reduction as compared to vehicle on day 29 (Dunnett's test)” value in test [2] (10 mg/kg po, p<0.001, DIO mice) is listed as “statistically significant weight reduction”. In test [3], the “24 hour body weight change versus vehicle” value was “No significant differences”, the “body weight versus vehicle” value was “No significant differences” and the “daily food intake versus vehicle” value is given as “No significant differences”. Besides, the “reduction in body weight” value in test [4] (10 mg/kg orally, chronic administration, DIO mice, FIG. 22) amounted to 15%. Also, in [4] (dosed orally at 10 mg/kg, p<0.001), the “weight reduction as compared to vehicle on day 29 (Dunnett's test)” value is reported as “statistically significant weight reduction”.
`CNCC[C@@H](Oc1ccc(C(F)(F)F)cc1)c1ccccc1` [(R)-fluoxetine]: in test [1], the “functional activity versus the CB1 receptor” value is recorded as “antagonist”.
Turning to `CC(C)CC(N(C)C)C1(c2ccc(Cl)cc2)CCC1` (centres unmarked) [sibutramine], the “reduction of body weight” value in test [2] (20 mg/kg po) is 2%.
Consider `Fc1ccc(C(OCCCc2c[nH]cn2)c2ccc(F)cc2)cc1` [compound 7], for which the results for the “effect on the 2-AG dose response (Ca2+i)” value in test [5] and in test [6] were “right shift” and “No effect”, respectively. Further, the “inhibition of agonist (CP 55940) binding” value in test [7] (mouse brain membrane, FIG. 7) is reported as “inhibited”. Moreover, in test [7] (mouse brain membrane, FIG. 7), the “inhibition of antagonist/inverse agonist (SR 141716) binding” value is listed as “inhibited”. Also, the “inhibition of binding of [3H]CP 55,940” value in test [7] (mouse brain membranes, 0.75 nM radioligand, FIG. 6) was “almost fully inhibited”; in test [10] it was “partially inhibited”. For the same molecule, the “effect on the dissociation rate of [3H]CP 55,940” value in [8] is “no effect”. Further, in test [9] (CB1 cell line, FIG. 4), the “pA2 estimation using CP 55940 as an agonist” value was “did not support an allosteric effect”. In addition, the “[35S]GTPγS binding: antagonist versus inverse agonist activity” value in [9] (response dropped below basal levels, FIG. 5) is “inverse agonist activity”.
For `CNCC[C@H](Oc1ccc(C(F)(F)F)cc1)c1ccccc1` [(S)-Fluoxetine], the “functional activity versus the CB1 receptor” value in test [1] is on record as “inverse agonist”.
